In article PMC9697080 (International Journal of Molecular Sciences, 2022):
“And” between values parts separate entries of the source, which are not always exact repeats. Equal entries are not always repeated.

How the values were obtained:
[1] = molecular target: T1, HIV-1 protease (Human immunodeficiency virus type 1 group M subtype B, UniProt P04585); experiment: biochemical; format: biochemical; conditions: for IC50: IC50 (HIV-1 protease inhibition)
[2] = Cytotoxicity assay (CCK8 Assay Kit); conditions: human
[3] = test system: DRV-resistant HIV-1 variant pHIV-1DRV^RS (V32I, L33F, I54M, I84V); experiment: microbe, parasite or virus in culture; format: cell-based; conditions: for EC50: Human immunodeficiency virus 1, read-out: Mean EC50 HIVDRV^Rs
[4] = test system: VSV-G-pseudotyped HIV-1 (pHIV-1NL4-3); experiment: microbe, parasite or virus in culture; format: cell-based; conditions: for inhibition at 10 µM: Human immunodeficiency virus 1, SUP-T1, read-out: Inhibition (%) (10 μM), effects on late-stage HIV-1; for EC50: Human immunodeficiency virus 1, read-out: Mean EC50 HIV-1NL4-3
[5] = molecular target: T1, HIV-1 protease; experiment: biochemical; format: binding
[6] = test system: HEK293T cells; experiment: Cytotoxicity assay (CCK8 Assay Kit); conditions: HEK293T (293T) cells, CCK8, 24 h
[7] = test system: influenza virus strain H3N2; parameters: method as in PMID 26077494; conditions: read-out: IC50 against influenza H3N2; cited from earlier work
[8] = test system: influenza virus strain H1N1; parameters: method as in PMID 26077494; conditions: read-out: IC50 against influenza H1N1; cited from earlier work
[9] = test system: influenza virus strain H5N1; conditions: read-out: IC50 against influenza H5N1; cited from earlier work
[10] = HEK293T cells, CC50, HEK293T (293T) cells, CCK8, 24 h

COc1cc(O)c(C(=O)N[C@@H](Cc2ccccc2)[C@H](O)CN(CC(C)C)S(=O)(=O)c2ccc(SC)cc2)cc1OC [17i]
IC50 [1]: 4.71 ± 0.18 nM
CC50 at 24 h [2, 10]: > 100000 nM

COc1ccc(S(=O)(=O)N(CC(C)C)C[C@@H](O)[C@H](Cc2ccccc2)NC(=O)c2cc(O)cc(O)c2)cc1 [15f]
Enhancement of enzymatic inhibitory activity compared with DRV [1]: over 200 fold
IC50 [1]: 0.0024 ± 0.0004 nM
Fold Resistance, EC50 (mutant)/EC50 (WT) [3]: 1.57 fold
EC50 [3]: 45.5 ± 12.1 nM
Effectivity in single-round infection assay compared with DRV [4]: equipotent with DRV
inhibition at 10 µM [4]: 100%
EC50 [4]: 28.9 ± 9.21 nM

CC(C)CN(C[C@@H](O)[C@H](Cc1ccccc1)NC(=O)c1cc(O)c(O)c(O)c1)S(=O)(=O)c1ccc(N)cc1 [16g]
IC50 [1]: 68 nM and 68.2 nM
CC50 at 24 h [2, 10]: 57600 nM
inhibition at 10 µM [4]: 55 ± 6%

COc1ccc(C(=O)N[C@@H](Cc2ccccc2)[C@H](O)CN(CC(C)C)S(=O)(=O)c2ccc(N)cc2)c(O)c1 [16c]
IC50 [1]: 4.14 ± 1.38 nM
CC50 at 24 h [2, 10]: > 100000 nM
inhibition at 10 µM [4]: 90 ± 6%

COc1cc(O)c(C(=O)N[C@@H](Cc2ccccc2)[C@H](O)CN(CC(C)C)S(=O)(=O)c2ccc(N)cc2)cc1OC [16i]
IC50 [1]: 0.6 ± 0.18 nM
CC50 at 24 h [2, 10]: > 100000 nM

COc1ccc(S(=O)(=O)N(CC(C)C)C[C@@H](O)[C@H](Cc2ccccc2)NC(=O)c2ccc(OC)cc2O)cc1 [15c]
IC50 [1]: 4.68 ± 0.74 nM
CC50 at 24 h [2, 10]: > 100000 nM
inhibition at 10 µM [4]: 92 ± 5%

CSc1ccc(S(=O)(=O)N(CC(C)C)C[C@@H](O)[C@H](Cc2ccccc2)NC(=O)c2cc(O)cc(O)c2)cc1 [17f]
IC50 [1]: 0.0066 ± 0.0021 nM
CC50 at 24 h [2, 10]: > 100000 nM
Effectivity in single-round infection assay compared with DRV [4]: equipotent with DRV
inhibition at 10 µM [4]: 100%

COc1ccc(S(=O)(=O)N(CC(C)C)C[C@@H](O)[C@H](Cc2ccccc2)NC(=O)c2ccc(Cl)cc2O)cc1 [15b]
Kd [5]: 7100 nM
IC50 [1]: 7.82 ± 0.93 nM
CC50 [6]: 33900 nM
CC50 at 24 h [2, 10]: > 20000 nM
Fold Resistance, EC50 (mutant)/EC50 (WT) [3]: 1.31 fold
EC50 [3]: 1840 ± 39.6 nM
inhibition at 10 µM [4]: 96 ± 3%
EC50 [4]: 1400 ± 23 nM

CC(C)CN(C[C@@H](O)[C@H](Cc1ccccc1)NC(=O)c1ccc(O)c(O)c1)S(=O)(=O)c1ccc(N)cc1 [16d]
IC50 [1]: 1.63 ± 0.33 nM
CC50 at 24 h [2, 10]: > 100000 nM
Effectivity in single-round infection assay compared with DRV [4]: equipotent with DRV
inhibition at 10 µM [4]: 100%

CC(C)CN(C[C@@H](O)[C@H](Cc1ccccc1)NC(=O)c1cc(O)cc(O)c1)S(=O)(=O)c1ccc(N)cc1 [16f]
IC50 [1]: 0.27 ± 0.03 nM
CC50 at 24 h [2, 10]: > 100000 nM
inhibition at 10 µM [4]: 99 ± 2%

CC(C)CN(C[C@@H](O)[C@H](Cc1ccccc1)NC(=O)c1ccccc1O)S(=O)(=O)c1ccc(N)cc1 [16a]
IC50 [1]: 0.54 ± 0.11 nM
CC50 at 24 h [2, 10]: > 100000 nM
Effectivity in single-round infection assay compared with DRV [4]: equipotent with DRV
inhibition at 10 µM [4]: 100%

COc1ccc(S(=O)(=O)N(CC(C)C)C[C@@H](O)[C@H](Cc2ccccc2)NC(=O)c2cc(O)c(O)c(O)c2)cc1 [15g]
IC50 [1]: 1.13 ± 0.23 nM
CC50 at 24 h [2, 10]: > 100000 nM
inhibition at 10 µM [4]: 99 ± 1%

COc1ccc(S(=O)(=O)N(CC(C)C)C[C@@H](O)[C@H](Cc2ccccc2)NC(=O)c2ccc(O)c(O)c2)cc1 [15d]
IC50 [1]: 0.0059 ± 0.0007 nM
CC50 [6]: 38200 nM
CC50 at 24 h [2, 10]: > 20000 nM
EC50 [3]: 402 ± 47.3 nM
Effectivity in single-round infection assay compared with DRV [4]: equipotent with DRV
inhibition at 10 µM [4]: 100%
EC50 [4]: 15.4 ± 2.17 nM

COc1cc(C(=O)N[C@@H](Cc2ccccc2)[C@H](O)CN(CC(C)C)S(=O)(=O)c2ccc(SC)cc2)cc(OC)c1O [17h]
IC50 [1]: 0.32 ± 0.03 nM
CC50 at 24 h [2, 10]: > 100000 nM

CSc1ccc(S(=O)(=O)N(CC(C)C)C[C@@H](O)[C@H](Cc2ccccc2)NC(=O)c2ccc(Cl)cc2O)cc1 [17b]
IC50 [1]: 2.79 ± 0.44 nM
CC50 at 24 h [2, 10]: > 100000 nM

CSc1ccc(S(=O)(=O)N(CC(C)C)C[C@@H](O)[C@H](Cc2ccccc2)NC(=O)c2ccc(O)c(O)c2)cc1 [17d]
IC50 [1]: 0.0076 ± 0.0029 nM
CC50 at 24 h [2, 10]: > 100000 nM
Effectivity in single-round infection assay compared with DRV [4]: equipotent with DRV
inhibition at 10 µM [4]: 100%

O=c1oc2cc(/C=C/c3ccc(O)c(O)c3)oc(=O)c2c2cc(O)c(O)cc12 [Phelligridin D]
IC50 [7]: 10300 nM
IC50 [8]: 8800 nM
IC50 [9]: 10900 nM

CC(C)CN(C[C@@H](O)[C@H](Cc1ccccc1)NC(=O)c1ccc(Cl)cc1O)S(=O)(=O)c1ccc(N)cc1 [16b]
IC50 [1]: 0.31 ± 0.08 nM
CC50 at 24 h [2, 10]: > 100000 nM
inhibition at 10 µM [4]: 98 ± 2%

COc1cc(C(=O)N[C@@H](Cc2ccccc2)[C@H](O)CN(CC(C)C)S(=O)(=O)c2ccc(N)cc2)cc(OC)c1O [16h]
IC50 [1]: 0.04 ± 0.003 nM
CC50 at 24 h [2, 10]: > 100000 nM
inhibition at 10 µM [4]: 99 ± 3%

COc1ccc(S(=O)(=O)N(CC(C)C)C[C@@H](O)[C@H](Cc2ccccc2)NC(=O)c2cc(OC)c(O)c(OC)c2)cc1 [15h]
IC50 [1]: 0.08 ± 0.03 nM
CC50 at 24 h [2, 10]: 84700 nM
inhibition at 10 µM [4]: 99 ± 2%

CC(C)CN(C[C@@H](O)[C@H](Cc1ccccc1)NC(=O)c1ccc(O)cc1O)S(=O)(=O)c1ccc(N)cc1 [16e]
IC50 [1]: 0.43 ± 0.08 nM
CC50 at 24 h [2, 10]: > 100000 nM
inhibition at 10 µM [4]: 75 ± 8%

CSc1ccc(S(=O)(=O)N(CC(C)C)C[C@@H](O)[C@H](Cc2ccccc2)NC(=O)c2ccc(O)cc2O)cc1 [17e]
IC50 [1]: 0.4 ± 0.08 nM
CC50 at 24 h [2, 10]: > 100000 nM

CC(C)CN(C[C@@H](O)[C@H](Cc1ccccc1)NC(=O)O[C@H]1CO[C@H]2OCC[C@H]21)S(=O)(=O)c1ccc(N)cc1 [DRV, Darunavir, reference compound]
CC50 at 24 h [2]: > 100000 nM
EC50 [3]: 136.8 ± 1.12 nM
inhibition at 10 µM [4]: 100%
EC50 [4]: 1.8 ± 0.73 nM

CSc1ccc(S(=O)(=O)N(CC(C)C)C[C@@H](O)[C@H](Cc2ccccc2)NC(=O)c2ccccc2O)cc1 [17a]
IC50 [1]: 3.97 ± 0.41 nM
CC50 at 24 h [2, 10]: > 100000 nM

COc1ccc(S(=O)(=O)N(CC(C)C)C[C@@H](O)[C@H](Cc2ccccc2)NC(=O)c2ccc(O)cc2O)cc1 [15e]
IC50 [1]: 0.3 ± 0.08 nM
CC50 at 24 h [2, 10]: 78800 nM
inhibition at 10 µM [4]: 75 ± 6%

COc1ccc(S(=O)(=O)N(CC(C)C)C[C@@H](O)[C@H](Cc2ccccc2)NC(=O)c2ccccc2O)cc1 [15a]
IC50 [1]: 3.34 ± 0.28 nM
CC50 at 24 h [2, 10]: > 100000 nM
inhibition at 10 µM [4]: 98 ± 2%

COc1ccc(S(=O)(=O)N(CC(C)C)C[C@@H](O)[C@H](Cc2ccccc2)NC(=O)c2cc(OC)c(OC)cc2O)cc1 [15i]
IC50 [1]: 1.41 ± 0.43 nM
CC50 at 24 h [2, 10]: > 100000 nM

COc1ccc(C(=O)N[C@@H](Cc2ccccc2)[C@H](O)CN(CC(C)C)S(=O)(=O)c2ccc(SC)cc2)c(O)c1 [17c]
IC50 [1]: 8.21 ± 1.2 nM
CC50 at 24 h [2, 10]: > 100000 nM
